Where only a bound is given, the exact number is not on record here.

Assay type in all cases: cell-based
One assay concerns the target T1, human A2A receptors (Homo sapiens, UniProt P29274).
T1 construct: expressed in transfected cells; host or cells: HEK293
Put plainly: Inhibition of human A2A receptor in recombinant HEK293 cells, cAMP quantification (HTRF). The conditions noted are these: read-out: A2A (Category). Put shortly: (§1)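 cAMP accumulation, determined by HTRF after a 15 min incubation, served as the functional measure of receptor activity.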

Another assay has as its target T2, human A2B receptors (Homo sapiens, UniProt P29275).
T2 construct: expressed in transfected cells; host or cells: HEK293
T2 sequence (P29275 1-332): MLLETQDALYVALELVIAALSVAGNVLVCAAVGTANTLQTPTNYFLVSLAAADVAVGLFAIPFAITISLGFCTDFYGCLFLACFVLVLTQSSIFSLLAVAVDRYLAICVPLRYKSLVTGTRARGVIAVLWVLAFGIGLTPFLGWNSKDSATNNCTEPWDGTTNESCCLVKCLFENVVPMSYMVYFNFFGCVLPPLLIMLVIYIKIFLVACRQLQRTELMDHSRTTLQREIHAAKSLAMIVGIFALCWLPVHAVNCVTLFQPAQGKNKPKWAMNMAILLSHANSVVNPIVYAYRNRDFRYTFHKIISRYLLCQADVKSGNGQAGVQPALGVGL
Put plainly: Inhibition of human A2B receptor in recombinant HEK293 cells, cAMP quantification (HTRF). Particulars: read-out: A2B (Category). Put shortly: as §1
(In general: In TR-FRET formats the signal depends on donor and acceptor labels being close together.)

Assay [1] addresses T3, endogenous human A2A receptor (Homo sapiens, UniProt P29274).
T3 construct: The endogenous functional activity of the Gs-coupled human A2A receptor was measured in T cells; endogenous in cells; host or cells: human pan T cells isolated from PBMC of fresh whole blood
Put plainly: Human T cell assay, endogenous A2A receptor, cAMP quantification. The protocol: The endogenous functional activity of the Gs-coupled human A2A receptor was measured in T cells, where this receptor is highly expressed. Determination of receptor activity was done by quantification of cAMP, which is a second messenger for adenosine receptors.
In short, human pan T cells were isolated from human PBMC (MACS Pan T Cell Isolation Kit, Miltenyi Biotec) that have been derived from fresh whole blood. The T cells were seeded in 384-well microtiter plates and treated with test compounds. […] Finally, HTRF reagents (cAMP Femto Kit, CisBio) were added to the wells, and after 1 h cellular cAMP levels were determined using the ENVISION (Perkin Elmer) plate reader.
The obtained raw data were normalized against the inhibitor control and the neutral control (DMSO) and the normalized data were fitted using Genedata Screener software.

The subject of the next assay is Human T cell. Put plainly: Human T cell IL-2. The conditions noted are these: human T cells.
Another assay relates to mouse Pan T cells. Put plainly: Mouse T cell IL-2 rescue from NECA inhibition (ELISA). Particulars: 24 h. The source says:
Adenosine (Ado) in tumor microenvironment can inhibit T cell activity by signaling through A2A receptors and suppress cytokine secretion by T cells. […] Potential A2A antagonists or A2A/A2B dual antagonists can rescue T cells from this inhibition. Herein, we describe the in vitro system we established using Pan T cells from mouse spleens to screen potential A2A antagonists or A2A/A2B dual antagonists for their activity. The method described involves the use of CD3/CD28 pre-coated beads to stimulate Pan T cells purified from mouse splenocytes, combined with the addition of A2A agonist along with potential A2A or A2A/A2B dual antagonists to evaluate potentiation of T cell cytokine production.
Briefly, mouse Pan T cells are purified from spleens of BALB/c mice using Pan T cell isolation kit Mouse II (MACS Miltenyi biotech Cat # Order no. 130-095-130) according to manufacturer's protocol. […] After 24 h incubation IL-2 levels in the supernatants are measured by ELISAs according to manufacturer's protocol (R&D systems Cat # DY402 (IL-2)). Once the concentrations are calculated, the difference of cytokine concentration of DMSO control and agonist alone control is calculated and the percentage of rescue by each concentration of antagonist is calculated by using Microsoft Excel. […]

T1 sequence (P29274 whole entry): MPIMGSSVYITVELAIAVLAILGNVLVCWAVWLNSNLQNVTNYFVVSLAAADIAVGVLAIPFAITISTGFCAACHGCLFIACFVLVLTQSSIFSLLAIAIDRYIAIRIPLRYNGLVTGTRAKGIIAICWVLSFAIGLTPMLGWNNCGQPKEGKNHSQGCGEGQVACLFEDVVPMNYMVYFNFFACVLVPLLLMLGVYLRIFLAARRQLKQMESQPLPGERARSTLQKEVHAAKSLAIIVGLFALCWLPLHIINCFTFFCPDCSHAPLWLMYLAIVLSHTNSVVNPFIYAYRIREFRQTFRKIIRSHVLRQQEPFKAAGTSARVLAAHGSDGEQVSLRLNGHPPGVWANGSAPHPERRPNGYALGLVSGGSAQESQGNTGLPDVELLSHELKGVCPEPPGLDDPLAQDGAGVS
T3 sequence (P29274 whole entry): as above

Take `O=C(c1cc2c(cn1)c(Nc1ccc(F)cc1)nn2CC(F)(F)F)N1CCCOCC1` [Compound 10, [3-(4-fluoroanilino)-1-(2,2,2-trifluoroethyl)pyrazolo[4,3-c]pyridin-6-yl]-(1,4-oxazepan-4-yl)methanone]: the IC50 at human A2A receptors was under 100 nM; at human A2B receptors it was under 100 nM; in assay [1] it was under 100 nM; in the assay with Human T cell, under 100 nM; in the assay on mouse Pan T cells, under 1000 nM.
For `CC1(O)CCN(C(=O)c2cc3c(cn2)c(Nc2cnccn2)nn3CC(F)(F)F)CC1` [Compound 123, [3-(pyrazin-2ylamino)-1-(2,2,2-trifluoro-ethyl)-1H-pyrazolo[4,3-c]pyridin-6-yl]-(4-hydroxy-4-methyl-piperidin-1-yl)-methanone], the IC50 at human A2A receptors and at human A2B receptors was under 1000 nM throughout.
As to `CS(=O)(=O)Cn1nc(Nc2cccc(F)c2)c2cnc(C(=O)N3[C@@H]4CC[C@H]3C[C@@H](O)C4)cc21` [Compound 31, [3-(3-fluoroanilino)-1-(methylsulfonylmethyl)pyrazolo[4,3-c]pyridin-6-yl]-(3-endo-hydroxy-8-azabicyclo[3.2.1]octan-8-yl)methanone], the IC50 on human A2A receptors and on human A2B receptors was under 100 nM each time.
As for `O=C(c1cc2c(cn1)c(Nc1cc(F)ccn1)nn2CC(F)(F)F)N1CCC(O)(C2CC2)CC1` [Compound 115, [3-(4-Fluoro-pyridin-2-ylamino)-1-(2,2,2-trifluoro-ethyl)-1H-pyrazolo[4,3-c]pyridin-6-yl]-(4-cyclopropyl-4-hydroxypiperidin-1-yl)-methanone], the IC50 on human A2A receptors and at human A2B receptors was under 100 nM each time.
Turning to `O=C(c1cc2c(cn1)c(Nc1ccccn1)nn2CC(F)(F)F)N1CCOCC(O)C1` (stereo not shown) [Compound 52, (6-hydroxy-1,4-oxazepan-4-yl)-[3-(2-pyridylamino)-1-(2,2,2-trifluoroethyl)pyrazolo[4,3-c]pyridin-6-yl]methanone], the IC50 at human A2A receptors and on human A2B receptors was under 100 nM throughout.
Regarding `CCC1(O)CCN(C(=O)c2cc3c(cn2)c(Nc2cc(F)ccn2)nn3CC(F)(F)F)CC1` [Compound 113, [3-(4-Fluoro-pyridin-2-ylamino)-1-(2,2,2-trifluoro-ethyl)-1H-pyrazolo[4,3-c]pyridin-6-yl]-(4-ethyl-4-hydroxypiperidin-1-yl)-methanone], the IC50 on human A2A receptors and at human A2B receptors was under 100 nM in each case.
On to `O=C(c1cc2c(cn1)c(Nc1cccc(F)c1)nn2CC(F)(F)F)N1[C@@H]2CC[C@H]1C[C@@H](O)C2` [Compound 25, [3-(3-fluoroanilino)-1-(2,2,2-trifluoroethyl)pyrazolo[4,3-c]pyridin-6-yl]-(3-endo-hydroxy-8-azabicyclo[3.2.1]octan-8-yl)methanone], for which the IC50 at human A2A receptors and on human A2B receptors was under 100 nM each time.
For `O=C(c1cc2c(cn1)c(Nc1cc(F)ccn1)nn2CC(F)(F)F)N1CCC(O)CC1` [Compound 111, [3-[(4-fluoro-2-pyridyl)amino]-1-(2,2,2-trifluoroethyl)pyrazolo[4,3-c]pyridin-6-yl]-(4-hydroxypiperidin-1-yl)methanone], the IC50 on human A2A receptors and at human A2B receptors was under 100 nM each time.
Regarding `O=C(c1cc2c(cn1)c(Nc1cccc(F)c1)nn2CC(F)(F)F)N1CC2CCC(C1)O2` [Compound 20, [3-(3-fluoroanilino)-1-(2,2,2-trifluoroethyl)pyrazolo[4,3-c]pyridin-6-yl]-(8-oxa-3-azabicyclo[3.2.1]octan-3-yl)methanone], the results for the IC50 at human A2A receptors and on human A2B receptors were under 100 nM and under 1000 nM, respectively.
The matching figures for `CC1(O)CCN(C(=O)c2cc3c(cn2)c(Nc2cccc(F)c2)nn3CC(F)(F)F)CC1` [Compound 35, [3-(3-fluoroanilino)-1-(2,2,2-trifluoroethyl)pyrazolo[4,3-c]pyridin-6-yl]-(4-hydroxy-4-methyl-1-piperidyl)methanone]: under 100 nM and under 1000 nM.
In the case of `[2H]C1([2H])COCCN(C(=O)c2cc3c(cn2)c(Nc2ccc(F)cc2)nn3CC(F)(F)F)C1` [Compound 41, (6,6-dideuterio-1,4-oxazepan-4-yl)-[3-(4-fluoroanilino)-1-(2,2,2-trifluoroethyl)pyrazolo[4,3-c]pyridin-6-yl]methanone], the IC50 on human A2A receptors was under 100 nM; at human A2B receptors, under 1000 nM.
The matching figures for `O=C(c1cc2c(cn1)c(Nc1ccc(F)cn1)nn2CC(F)(F)F)N1[C@@H]2CC[C@H]1C[C@@H](O)C2` [Compound 107, [3-[(5-fluoro-2-pyridyl)amino]-1-(2,2,2-trifluoroethyl)pyrazolo[4,3-c]pyridin-6-yl]-(3-endo-hydroxy-8-azabicyclo[3.2.1]octan-8-yl)methanone]: under 100 nM and under 100 nM.
For `O=C(c1cc2c(cn1)c(Nc1ccc(F)cc1)nn2CC(F)(F)F)N1CCOCC(O)C1` (stereo not shown) [Compound 33, [3-(4-fluoroanilino)-1-(2,2,2-trifluoroethyl)pyrazolo[4,3-c]pyridin-6-yl]-(6-hydroxy-1,4-oxazepan-4-yl)methanone] the same measures were under 100 nM and under 1000 nM.
As to `O=C(c1cc2c(cn1)c(Nc1ccc(F)cn1)nn2CC(F)(F)F)N1CCC[C@@H](O)C1` [Compound 97, [(3R)-3-hydroxy-piperidin-1-yl]-[3-(5-Fluoro-pyridin-2-ylamino)-1-(2,2,2-trifluoro-ethyl)-1H-pyrazolo[4,3-c]pyridin-6-yl]-methanone], the IC50 on human A2A receptors is under 100 nM; at human A2B receptors it was under 1000 nM.

These data come from patent US12194051B2, “5-azaindazole derivatives as adenosine receptor antagonists” (MERCK PATENT GMBH, priority 2018, dated 2025).
